Results published in patent EP4656630A1, “NOVEL COMPOUND AS LYSYL-TRNA SYNTHETASE 1 INHIBITOR, AND USE THEREOF” (Zymedi Co., Ltd., priority 2023, dated 2024).

What was measured:
[1] = test system: Raw 264.7 cells; assay: LN (Laminin 421)-induced immune cell migration, Transwell; format: cell-based; details: Mus musculus, RAW264.7
Procedure, shortened: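 Raw 264.7 cells (1 x 10^5/well) seeded in upper chamber of gelatin-coated 5 µm Transwell with compound at 3 µM. Serum-free DMEM with Laminin 421 (1 µg/ml) in lower chamber. After 24 h, migrated cells fixed, hematoxylin-stained and counted by microscopy; expressed as % inhibition versus control.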

[2] = biological target: T1, KARS1 and 37LR (Homo sapiens, UniProt Q15046); assay: Cell-free ELISA of KARS1 and 37LR (laminin receptor) binding; details: 10 µM compound, 1 hour, plate coated with KARS1 (1-207aa), LRF
T1 construct: KARS1 (1-207aa)
Description: Next, based on the mechanism of action, a cell-free ELISA analysis was conducted to select compounds with high inhibitory activity on the binding of KARS1 and LR (laminin receptor).

[3] = test system: Raw264.7 cells; assay: KARS1-induced trans-migration assay; format: cell-based, mouse; details: Mus musculus, RAW264.7
Procedure, shortened: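 Mouse Raw264.7 macrophage trans-migration induced by externally added KARS1 protein in place of laminin. Candidates with high inhibition at 1 µM were then tested at 0.1~4 µM.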

[4] = Microsomal metabolic stability, rat; format: in vitro ADME
Description: (§1) Metabolic stability (MS) evaluation was conducted for the selected compounds by measuring in vitro stability in two species, rat and human, according to the microsomal stability measurement method. As a result, it was identified that MS varied depending on the transformation of parts A, B, and C.

[5] = Microsomal metabolic stability, human; format: in vitro ADME
Description: as §1

[6] = S9 metabolic stability, mouse; format: in vitro ADME
Description: (§2) Among these, secondary MS measurements were conducted for Compound 25 (C0047), Compound 43 (C0216), and C0001 using the S9 method. This test measured the remaining % at 30, 45, and 60 minutes for four species: mouse, rat, dog, and human.

[7] = S9 metabolic stability, rat; format: in vitro ADME
Description: as §2

[8] = S9 metabolic stability, dog; format: in vitro ADME
Description: as §2

[9] = S9 metabolic stability, human; format: in vitro ADME
Description: as §2

[10] = Rat pharmacokinetics (po and iv) and bioavailability; format: in vivo; details: for Cmax / Tmax / half-life / AUC: in vivo
Description: For this purpose, formulations suitable for peroral administration (po) and intravenous injection (iv) for each compound were first selected to ensure stable PK progression.
The formulation was selected under the condition of maintaining a clear solution for more than 1 hour at 10 and 30 mpk doses based on po, and the iv formulation was modified when iv use was not possible based on po (Table 8).
To confirm the oral administration potential of the selected compounds, 10 mpk rat po PK was conducted. The PK profile and key indicators after administering 10 mpk to five compounds, C0001, 25, 41, 42, and 43, are shown in Figure 3 and Table 9.
Based on the previous 10 mpk po rat PK results, 30 mpk po rat PK was conducted for four compounds, C0001, 25, 41, and 43, to confirm changes in the blood PK profile of the substances with increasing doses.
For these compounds, 2 mpk iv rat PK was conducted to calculate bioavailability (BA) (Table 11).

[11] = Organ distribution; format: in vivo; parameters: Organ distribution Plasma (ng/ml): concentration or dose not given beside the values

T1 sequence (Q15046 1-207): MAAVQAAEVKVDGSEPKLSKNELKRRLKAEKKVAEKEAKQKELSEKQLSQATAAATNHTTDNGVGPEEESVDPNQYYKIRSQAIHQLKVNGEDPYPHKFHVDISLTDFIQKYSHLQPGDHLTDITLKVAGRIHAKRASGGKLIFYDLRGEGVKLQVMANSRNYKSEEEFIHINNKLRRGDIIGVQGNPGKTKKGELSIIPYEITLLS

EC50 ([1]; LN-induced cell migration, read-out: EC50 for cell migration inhibition induced by LN): 5.96 µM
inhibition at 10 µM [2]: 69.2%
EC50 ([3]; KARS1-induced cell migration, 0.1~4 µM): 0.57 µM
Metabolic stability (% remaining at 30 min) Rat [4]: 77%
Metabolic stability (% remaining at 30 min) Human [5]: 66%
Metabolic stability (% remaining at each time) Mouse (min) 30 ([6]; 30 min): 70.5%
Metabolic stability (% remaining at each time) Mouse (min) 45 ([6]; 45 min): 71.7%
Metabolic stability (% remaining at each time) Mouse (min) 60 ([6]; 60 min): 60.9%
Metabolic stability (% remaining at each time) Rat (min) 30 ([7]; 30 min): 86.0%
Metabolic stability (% remaining at each time) Rat (min) 45 ([7]; 45 min): 84.1%
Metabolic stability (% remaining at each time) Rat (min) 60 ([7]; 60 min): 88.5%
Metabolic stability (% remaining at each time) Dog (min) 30 ([8]; 30 min): 100.6%
Metabolic stability (% remaining at each time) Dog (min) 45 ([8]; 45 min): 93.5%
Metabolic stability (% remaining at each time) Dog (min) 60 ([8]; 60 min): 97.0%
Metabolic stability (% remaining at each time) Human (min) 30 ([9]; 30 min): 70.1%
Metabolic stability (% remaining at each time) Human (min) 45 ([9]; 45 min): 75.8%
Metabolic stability (% remaining at each time) Human (min) 60 ([9]; 60 min): 66.8%
Cmax ([10]; 10 mg/kg, po, 10 mpk): 1750 ng/mL
Tmax ([10]; 10 mg/kg, po, 10 mpk): 1 h
half-life ([10]; 10 mg/kg, po, 10 mpk): 1.34 h
Cmax ([10]; 30 mg/kg, po, 30 mpk): 14400 ng/mL
Tmax ([10]; 30 mg/kg, po, 30 mpk): 2 h
half-life ([10]; 30 mg/kg, po, 30 mpk): 0.76 h
AUC ([10]; iv, 2 mg/kg, 2 mpk): 2410 ng·h/mL
AUC ([10]; po, 10 mg/kg, 10 mpk): > 5000 ng·h/mL
AUC ([10]; po, 10 mg/kg, 10 mpk (Table 11)): 5410 ng·h/mL
AUC ([10]; po, 30 mg/kg, 30 mpk): 53000 ng·h/mL
AUC ([10]; po, 30 mg/kg, 30 mpk (Table 11)): 53000 ng·h/mL
BA (%) ([10]; po, 10 mpk against iv 2 mpk): 44.9%
AUC (ng*h/ml) ([10]; po, 10 mpk, listed as 25 (C0047), 10 mg/kg): 5,109 ng*h/ml
BA (%) ([10]; po, 30 mpk against iv 2 mpk): 146.6%
AUC value increase at 30 mpk ([10]; po, 30 mpk compared with 10 mpk): 10.4 times
Organ distribution (ratio per plasma) Brain ([11]; 0.5 h): 0.06
Organ distribution (ratio per plasma) Brain ([11]; 6.0 h): 0.54
Organ distribution (ratio per plasma) Heart ([11]; 0.5 h): 0.29
Organ distribution (ratio per plasma) Heart ([11]; 6.0 h): 0.52
Organ distribution (ratio per plasma) Kidney ([11]; 0.5 h): 0.38
Organ distribution (ratio per plasma) Kidney ([11]; 6.0 h): 0.79
Organ distribution (ratio per plasma) Liver ([11]; 0.5 h): 0.85
Organ distribution (ratio per plasma) Liver ([11]; 6.0 h): 3.15
Organ distribution (ratio per plasma) Lung ([11]; 0.5 h): 0.41
Organ distribution (ratio per plasma) Lung ([11]; 6.0 h): 1.05
Organ distribution Plasma (ng/ml) ([11]; 0.5 h): 29,901 ng/ml
Organ distribution Plasma (ng/ml) ([11]; 6.0 h): 1,499 ng/ml
SMILES: COc1ccc(CCN(Cc2ccc(N3CC[C@H](C(=O)O)C3)cc2)c2nc3cccc(F)c3s2)cc1 [Compound 25, (S)-1-(4-(((7-fluorobenzo[d]thiazol-2-yl)(4-methoxyphenethyl)amino)-methyl)phenyl)pyrrolidine-3-carboxylic acid]
inhibition at 3 µM ([1]; 3 µM compound, LN (Laminin 421 1 µg/ml), 24 hours, % inhibition compared to control group, read-out: Migration inhibitor % (3uM)): 83%
inhibition at 1 µM ([3]; 1 µM compound, read-out: KARS1-induced Raw264.7 cell migration (% inhibition, 1uM)): 96.2%
